Article PMC7576608, “Mechanisms of telomerase inhibition by oxidized and therapeutic dNTPs” (Nature Communications, 2020)
Values joined by “and” are separate entries in the source; they are usually repeats but may differ in a detail not shown here. Equal values may be shown once. Read-outs that look alike come from different tables or passages of the source.

Legend:
tcTERT [1] = biological target: T1, tcTERT (Tribolium castaneum, UniProt Q0QHL8); assay: Pre-steady-state single-turnover kinetics of tcTERT single nucleotide insertion; assay type: biochemical; design: tcTERT kobs: unit not given here; conditions: for Fold change: catalytic efficiency relative to dGTP
Source text: In order to better understand the ability of modified dNTPs to compete with natural dNTPs for telomerase utilization, we added modified dNTPs to reactions containing all four natural dNTPs. […] The calculated IC50 determines the concentration required to reduce repeat processivity in the bulk reactions by half. However, it is important to note that bulk experiments cannot distinguish effects on individual telomeres, since extended telomeres mask unextended telomeres. Incorporation of a chain terminator during any step will terminate extension of the affected telomere, and just five critically short telomeres are sufficient to trigger senescence. Therefore, repeat processivity IC50 values are not necessarily an indicator of the inhibitory potency, but provide information on selectivity for modified dNTPs compared to natural dNTPs. […] The ability to purify sufficient quantities of tcTERT enables characterization of the catalytic nucleotide addition by pre-steady-state single turnover kinetics using a defined DNA–RNA primer–template substrate. The catalytic efficiency of incorporating a single dNTP is measured by dividing the observed nucleotide incorporation rate constant, kpol, by the equilibrium dissociation constant for dNTP binding to the tcTERT–primer–template complex (Kd)[44].
Pre-steady-state kinetic parameters of tcTERT were obtained using established pre-steady-state kinetics protocols for DNA polymerases, also known as single turnover kinetics[70],[71]. Briefly, we preincubated 2 μM tcTERT with 200 nM annealed DNA:RNA hybrid substrate, with a 6-FAM label on the 5′ end of the DNA component. We then used a KinTek RQF-3 (a rapid quench-flow instrument) to mix equal ratios of the incoming nucleotide triphosphate and 10 mM MgCl2 with the existing mix of tcTERT and its DNA:RNA hybrid substrate. Reactions were run at 37 °C and quenched at various timepoints with 100 mM EDTA pH 7.5. […] After each reaction, the samples were transferred to a DNA gel loading buffer, containing 100 mM EDTA, 80% deionized formamide, 0.25 mg ml^−1 bromophenol blue, and 0.25 mg ml^−1 xylene cyanol. These mixes were then incubated at 95 °C for 5 min, and loaded onto a 21% denaturing polyacrylamide gel. These gels were run at 700 V, […], and 30 W at 30 °C in order to separate the reaction product from its substrate.
Means and standard deviations from at least three independent replicates were calculated, and graphed using KaleidaGraph version 4.5.2. Plots of product formation over time were fit to the exponential equation (1) to determine kobs values:1 P=A(1−e^−kobst).
In which [P] is the concentration of the product, A is the target engagement (amplitude), and t is the reaction time. After kobs values were determined for multiple nucleotide triphosphate concentrations, the data was replot to compare kobs to concentration of nucleotide triphosphate, and fit to Eq. (2):2 kobs=kpol[NTP]/Kd+[NTP]. with kpol representing the theoretical maximum value of kobs, and [NTP] representing the concentration of the nucleotide of interest.

tcTERT [2] = biological target: T1, tcTERT; conditions: cited from earlier work
polymerase β = polymerase β (Homo sapiens, UniProt P06746); assay: Polymerase β dGTP run-on assay; assay type: biochemical; conditions: 50 or 200 μM dGTP
Procedure: These mixes were then incubated at 95 °C for 5 min, and loaded onto a 21% denaturing polyacrylamide gel. These gels were run at 700 V, […], and 30 W at 30 °C in order to separate the reaction product from its substrate.
Supplementary Fig 4. Time course reactions with telomerase or pol β. (a, b) Telomerase reactions were conducted with 5 nM 32P-end labeled primer (a) Primer 4 (GTTAGG)3 or (b) Primer 2 (GGTTAG)3.
Products were separated on denaturing gels. Letters on the right indicate the template base; P indicates unextended 18-mer primer. Graphs represent the percent primer extended for the reactions in panels a and b from one experiment. ( c, d) Primer extension by human polymerase b. The double stranded 6- […]
reactions were run on denaturing gels and imaged using a Typhoon phosphoimager. P indicates unextended 13-mer primer from three independent experiments. Source data are provided as a Source […]

[3] = dNTP binding to tcTERT-primer-template complex

T1 sequence (Q0QHL8 entry or part of it): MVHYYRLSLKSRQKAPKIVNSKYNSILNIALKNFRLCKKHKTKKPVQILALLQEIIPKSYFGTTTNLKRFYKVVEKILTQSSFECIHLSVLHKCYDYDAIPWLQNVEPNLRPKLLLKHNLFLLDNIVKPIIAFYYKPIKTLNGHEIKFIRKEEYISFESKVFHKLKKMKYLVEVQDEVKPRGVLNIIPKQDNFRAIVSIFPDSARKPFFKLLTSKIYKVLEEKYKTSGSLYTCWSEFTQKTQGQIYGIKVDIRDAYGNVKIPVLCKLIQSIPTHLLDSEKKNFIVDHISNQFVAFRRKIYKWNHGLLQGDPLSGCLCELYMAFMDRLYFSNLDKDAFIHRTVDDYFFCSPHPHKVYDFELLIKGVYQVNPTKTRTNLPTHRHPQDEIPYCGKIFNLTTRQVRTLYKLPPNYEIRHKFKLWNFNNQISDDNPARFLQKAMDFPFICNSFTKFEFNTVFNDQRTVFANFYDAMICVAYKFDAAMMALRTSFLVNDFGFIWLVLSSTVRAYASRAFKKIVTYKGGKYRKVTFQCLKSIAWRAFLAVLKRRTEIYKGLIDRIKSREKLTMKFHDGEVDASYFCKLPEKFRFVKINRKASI

SMILES: Nc1nc2c(ncn2C2CC(O)C(COP(=O)(O)OP(=O)(O)OP(=O)(O)O)O2)c(=S)[nH]1 (stereo not shown) [6-thio-dGTP]
- tcTERT kobs (tcTERT [1]; [6-thio-dGTP] 0.5 uM, Mean): 0.024
- tcTERT kobs (tcTERT [1]; [6-thio-dGTP] 0.5 uM, single replicates): 0.020 and 0.017 and 0.037
- tcTERT kobs (tcTERT [1]; [6-thio-dGTP] 1 uM, Mean): 0.036
- tcTERT kobs (tcTERT [1]; [6-thio-dGTP] 1 uM, single replicates): 0.046 and 0.026 and 0.035
- tcTERT kobs (tcTERT [1]; [6-thio-dGTP] 3 uM, Mean): 0.084
- tcTERT kobs (tcTERT [1]; [6-thio-dGTP] 3 uM, single replicates): 0.093 and 0.083 and 0.076
- tcTERT kobs (tcTERT [1]; [6-thio-dGTP] 5 uM, Mean): 0.142
- tcTERT kobs (tcTERT [1]; [6-thio-dGTP] 5 uM, single replicates): 0.256 and 0.136 and 0.070 and 0.105
- tcTERT kobs (tcTERT [1]; [6-thio-dGTP] 7 uM, Mean): 0.143
- tcTERT kobs (tcTERT [1]; [6-thio-dGTP] 7 uM, single replicates): 0.232 and 0.073 and 0.125
- tcTERT kobs (tcTERT [1]; [6-thio-dGTP] 10 uM, Mean): 0.239
- tcTERT kobs (tcTERT [1]; [6-thio-dGTP] 10 uM, single replicates): 0.389 and 0.333 and 0.126 and 0.109
- tcTERT kobs (tcTERT [1]; [6-thio-dGTP] 15 uM, Mean): 0.330
- tcTERT kobs (tcTERT [1]; [6-thio-dGTP] 15 uM, single replicates): 0.523 and 0.151 and 0.314
- tcTERT kobs (tcTERT [1]; [6-thio-dGTP] 20 uM, Mean): 0.552
- tcTERT kobs (tcTERT [1]; [6-thio-dGTP] 20 uM, single replicates): 0.535 and 0.464 and 0.603 and 0.606
- tcTERT kobs (tcTERT [1]; [6-thio-dGTP] 25 uM, Mean): 0.632
- tcTERT kobs (tcTERT [1]; [6-thio-dGTP] 25 uM, single replicates): 0.411 and 0.737 and 0.749
- tcTERT kobs (tcTERT [1]; [6-thio-dGTP] 40 uM, Mean): 0.951
- tcTERT kobs (tcTERT [1]; [6-thio-dGTP] 40 uM, single replicates): 0.795 and 1.041 and 1.018
- tcTERT kobs (tcTERT [1]; [6-thio-dGTP] 50 uM, Mean): 1.139
- tcTERT kobs (tcTERT [1]; [6-thio-dGTP] 50 uM, single replicates): 1.051 and 1.270 and 1.096
- tcTERT kobs (tcTERT [1]; [6-thio-dGTP] 75 uM, Mean): 1.424
- tcTERT kobs (tcTERT [1]; [6-thio-dGTP] 75 uM, single replicates): 1.281 and 1.438 and 1.554
- tcTERT kobs (tcTERT [1]; [6-thio-dGTP] 100 uM, Mean): 1.760
- tcTERT kobs (tcTERT [1]; [6-thio-dGTP] 100 uM, single replicates): 1.806 and 1.680 and 1.793
- tcTERT kobs (tcTERT [1]; [6-thio-dGTP] 150 uM, Mean): 1.896
- tcTERT kobs (tcTERT [1]; [6-thio-dGTP] 150 uM, single replicates): 1.870 and 2.039 and 1.778
- Fold change (tcTERT [1]): 0.579
- Kd (tcTERT [1]; [3]): 92.4 ± 12.9 µM
- kpol (tcTERT [1]; single nucleotide insertion, 37 °C): 3.1 ± 0.23 s⁻¹

SMILES: Nc1nc2c(ncn2C2CC(O)C(COP(=O)(O)OP(=O)(O)OP(=O)(O)O)O2)c(=O)[nH]1 (stereo not shown) [dGTP]
- Kd (tcTERT [2]; [3]): 18.1 ± 3.78 µM
- Catalytic efficiency (kpol/Kd) (tcTERT [2]; single nucleotide insertion): 58000 ± 12000 M⁻¹ s⁻¹
- kpol (tcTERT [2]; single nucleotide insertion): 1.1 ± 0.03 s⁻¹
- Laddering or misincorporation by DNA polymerase β (in words) (polymerase β): no evidence of dGTP laddering or misincorporation opposite template A
- Fold higher catalytic efficiency of dGTP compared to 6-thio-dGTP (tcTERT [1]): 2 fold
- Fold change (tcTERT [1]): 1.000
